Measurements as given in patent US20150315188A1, “COMPOUNDS AND METHODS FOR TREATMENT OF HYPERTENSION” (MEDIVATION TECHNOLOGIES, INC., priority 2012, published 2015).

Assays:
[1] = biological target: T1, Human adrenergic α2A receptor (Homo sapiens, UniProt P08913); experiment: Radioligand binding, adrenergic α2A (Protocol Group A); parameters: expressed in transfected cells; host or cells: insect Sf9 cells; settings: 0.1 μM compound, [3H]MK-912, read-out: percent inhibition of specific binding, Adrenergic α2A
T1 sequence (P08913 1-465): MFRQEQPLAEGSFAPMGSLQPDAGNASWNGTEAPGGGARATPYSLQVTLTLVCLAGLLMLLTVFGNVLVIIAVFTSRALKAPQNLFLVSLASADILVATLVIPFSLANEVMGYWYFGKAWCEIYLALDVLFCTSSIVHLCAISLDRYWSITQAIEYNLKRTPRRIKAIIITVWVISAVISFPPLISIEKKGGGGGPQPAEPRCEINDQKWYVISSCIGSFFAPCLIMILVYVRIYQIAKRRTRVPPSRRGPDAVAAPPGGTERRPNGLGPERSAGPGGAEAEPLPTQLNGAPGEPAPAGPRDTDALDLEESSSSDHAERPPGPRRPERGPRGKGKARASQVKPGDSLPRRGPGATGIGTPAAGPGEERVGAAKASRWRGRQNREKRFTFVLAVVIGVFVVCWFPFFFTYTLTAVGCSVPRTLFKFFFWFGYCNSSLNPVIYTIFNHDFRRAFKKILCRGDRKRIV
Experimental: To evaluate in radioligand binding assays the activity of compounds of the invention, human recombinant adrenergic α2A receptor expressed in insect Sf9 cells (Uhlen, S. et al, J. Pharmacol. Exp. Ther. 271:1558, 1994) in a modified Tris-HCl buffer (50 mM Tris-HCl, pH 7.4, 12.5 mM MgCl2, 2 mM EDTA) was used. Compounds of invention were incubated with 1 nM [^3H]MK-912 for 60 min at 25° C. MK912 is (2S-trans)-1,3,4,5′,6,6′,7,12b-octahydro-1′,3′-dimethyl-spiro[2H-benzofuro[2,3-a]quinolizine-2,4′(1′H)-pyrimidin]-2′(3′H)-one hydrochloride. Non-specific binding was estimated in the presence of 10 μM WB-4101 (2-(2,6-Dimethoxyphenoxyethyl)aminomethyl-1,4-benzodioxane hydrochloride). Receptor proteins were filtered and washed, the filters were then counted to determine [^3H]MK-912 specifically bound. Compounds were screened at 1 μM or lower, using 1% DMSO as vehicle. Compounds of the invention were tested in this biochemical assay and percent inhibition of specific binding was determined. Biochemical assay results are presented as the percent inhibition of specific binding in Table B1a.

[2] = Stability in the presence of dog hepatocytes; assay type: in vitro ADME, Beagle dog; settings: male, Beagle, dog, cryopreserved hepatocytes, pH 7.4, dog hepatocytes, 37° C., average of duplicates, ^a = 0-120 minute time points, read-out: T1/2 Dog
Experimental: (§1) Compounds of the invention were tested for stability in the presence of dog, rat and human hepatocytes over a 4 hour period by LC/MS/MS. The study was performed by Integrated Analytical Solutions, Berkeley, Calif.
(§2) Reference Standards and Solutions: Compounds of the invention were stored as powders at ambient temperature in a desiccator and protected from light. Reference stock solutions of Compound Nos. 50a, 50b, 79a, 82, 91a and 178d, as 20 mM in DMSO were prepared and subsequently diluted to 2 mM in MeOH to provide working stock solutions (WSS). Unused standard solutions were stored at −20° C.
(§3) Hepatocyte Preparation: Human (mixed gender), Beagle dog (male) and Sprague Dawley rat (male) cryopreserved hepatocytes were purchased from Life Technologies Corporation. Hepatocytes were removed from liquid nitrogen, quickly thawed in a 37° C. water bath and transferred to Hepatocyte Thawing/Plating Medium (Cryopreserved Hepatocyte Recovery Medium, CHRM, Life Technologies Inc.). The cells were pelleted by slow speed centrifugation (˜100×g, 6 min) and resuspended at a high cell density. Hepatocyte viability was determined by trypan blue exclusion. Hepatocyte incubation medium (Life Technologies, Inc.) was added to generate a cell density of 2.0×10^6 cells/mL.
(§4) Hepatocyte Incubations for Stability: The 2 mM WSS was diluted 1 in 200 in hepatocyte incubation medium (pH 7.4) to 10 μM. A solution containing control compounds was prepared similarly to contain 10 μM each of dextromethorphan and testosterone. The solutions of test compounds and controls at 10 μM in hepatocyte incubation medium were pre-incubated at 37° C. for 10 min. Aliquots (250 μL) of hepatocyte suspensions (at 2.0×10^6 cells/mL) were transferred to appropriate 48-well plates and pre-incubated at 37° C. for 10 minutes. Metabolism was initiated by adding 250 μL pre-incubated medium (containing test drug) to wells containing cells. A negative control reaction excluding hepatocytes was used to monitor aqueous stability and/or non-specific adsorption. The final reaction mixtures contained 5 μM of test or control compound and 1.0×10^6 cells/mL. All reactions were performed in duplicate and carried at 37° C. in an incubator. Dextromethorphan and testosterone were used as control drugs to verify hepatocyte activity.
(§5) Aliquots were removed from each metabolism reaction at 0, 0.5, 2 and 4 hours. The reactions were terminated by adding each aliquot to a vessel containing 2× volumes (80 μL) of Internal Standard Solution (acetonitrile containing 50 ng/mL 2-(2,8-dimethyl-3,4-dihydro-1H-pyrido[4,3-b]indol-5(2H)-yl)-1-(pyridin-4-yl)ethanol (ISS1), 50 ng/mL of 2-(2,8-dimethyl-3,4-dihydro-1H-pyrido[4,3-b]indol-5(2H)-yl)-1-(piperidin-1-yl)ethanone (ISS2) and 5 ng/mL diphenhydramine. Terminated reactions were centrifuged at 6000 g for 30 mins at 4° C. to remove the precipitated proteins and cell debris. Following centrifugation, 20 μL of each supernatant was transferred to a deep-well microplate and diluted with 5× volumes (100 μL) of 0.2% formic acid in water. Compound 178d samples were diluted with 5× volumes (100 μL) of 0.1% HFBA in water. Samples were analyzed by LC/MS/MS.
(§6) Calculation of Metabolism Parameters: Percent remaining was measured by dividing the analyte/IS peak area ratio at the designated sample time by the peak area ratio at time 0. ISS1 served as the IS for Compound No. 178d. ISS2 served as the IS for Compound nos. 50a, 50b, 79a, 82 and 91a. The metabolic half-life (T1/2) was calculated using all time points unless otherwise noted. The T1/2 values were calculated as 0.693/k, where k is the slope of the log analyte/internal standard peak area ratio versus time. Metabolism rate was calculated by dividing the starting concentration of substrate by the concentration of hepatocytes, then dividing by the T1/2 value.

[3] = Stability in the presence of rat hepatocytes; assay type: in vitro ADME, Sprague Dawley rat; settings: male, Sprague Dawley, rat, cryopreserved hepatocytes, pH 7.4, rat hepatocytes, 37° C., average of duplicates, ^a = 0-120 minute time points, read-out: T1/2 Rat
Experimental: as §1, §2, §3, §4, §5, §6

[4] = Stability in the presence of human hepatocytes; assay type: in vitro ADME; settings: both sexes, human, cryopreserved hepatocytes, pH 7.4, human hepatocytes, 37° C., average of duplicates, ^a = 0-120 minute time points, read-out: T1/2 Human
Experimental: as §1, §2, §3, §4, §5, §6

| inhibition at 0.1 µM [1] [%] | half-life at 5 µM [2] [h] | half-life at 5 µM [3] [h] | half-life at 5 µM [4] [h] | Compound |
| --- | --- | --- | --- | --- |
| 28 | – | – | – | Cc1ccc2c(c1)c1c(n2CC(OC(=O)N2CCCC2)c2ccncc2)CCN(C)C1 (single isomer, unassigned) [4b] |
| 59 | – | – | – | Cc1ccc2c(c1)c1c(n2CC(C)(O)c2ccc(F)nc2)CCN2CCCC12 (single isomer, unassigned) [6a] |
| – | 2.03 | 2.43 | 1.92 | Cc1cc2c3c(n(CC(C)(O)c4ccncc4)c2cc1Cl)CCN1CCCC31 (single isomer, unassigned) [50a] |
| – | 1.37 | 2.82 | 2.3 | Cc1cc(Cl)c2c(c1)c1c(n2CC(C)(O)c2ccncc2)CCN2CCCC12 (single isomer, unassigned) [91a] |
| – | 4 | > 4 | 2.23 | Cc1ccc2c(c1)c1c(n2CC(O)c2ccncc2)CCN2CCCC12 (single isomer, unassigned) [Compound No. 178d] |
| – | 3.02 | 3.5 | > 4 | Cc1cc(F)c2c(c1)c1c(n2CC(C)(O)c2cccnc2)CCN2CCCC12 (centres unmarked) [Compound No. 79a] |

| Compound | inhibition at 0.1 µM [1] [%] | half-life at 5 µM [2] [h] | half-life at 5 µM [3] [h] | half-life at 5 µM [4] [h] |
| --- | --- | --- | --- | --- |
| Cc1ccc2c(c1)c1c(n2C[C@@H](OC2CCCC2)c2ccncc2)CCN2CCC[C@H]12 [compound 82, (11cR)-7-[(25)-2-(cyclopentoxy)-2-(4-pyridyl)ethyl]-10-methyl-1,2,3,5,6,11c-hexahydroindolizino[7,8-b]indole] | – | 0.8 | 0.767 | 0.817 |
